# Assay results reported in publication PMC2265061, “Compound Cytotoxicity Profiling Using Quantitative High-Throughput Screening” (Environmental Health Perspectives, 2007).
# Entries after “also recorded” stand apart in the source; their conditions may differ. Like-named read-outs stand apart in the source and are kept apart here.
# Key:
# [1] = tested on: 13 human and rodent cell types; conditions: for Species selectivity of cytotoxicity (human versus rodent cell types): nine human versus four rodent cell types
# Description: Human renal mesangial cells obtained from adult kidney tissue were kindly provided by J. Kopp (National Institute of Diabetes and Digestive and Kidney Diseases, NIH, Bethesda, MD). Rat renal proximal tubule cells were freshly isolated from rat kidney by In Vitro ADMET Laboratories, LLC (Rockville, MD). All cells chosen for testing represent target tissues of interest in toxicology from both human and rodent sources; most were transformed lines, but some were nontransformed or primary cells. All are well-characterized cells, produce uniform populations, are relatively easy to culture, and are amenable to a 1,536-well format.
# We measured cell viability using a luciferase-coupled ATP quantitation assay (CellTiter-Glo; Promega, Madison, WI). […] Cells were dispensed at 1,000–2,000 cells/5 μL/well in tissue-culture treated 1,536-well white/solid bottom assay plates (Greiner Bio-One North America, Monroe, NC) using a Flying Reagent Dispenser (Aurora Discovery, Carlsbad, CA). All but Jurkat cells (which are grown in suspension) were incubated at 37°C for 5–6 hr to allow for cell attachment, followed by addition of compounds via pin tool (Kalypsys, San Diego, CA). […] At the end of the incubation period, 5 μL of CellTiter-Glo reagent was added, plates were incubated at room temperature for 30 min, and the luminescence intensity of each well was determined using a ViewLux plate reader (PerkinElmer, Shelton, CT).
# (§1) Class 1 or 2 compounds were further divided into subclasses based on efficacy and quality of fit (R^2). Compounds with R^2 > 0.9 and high (> 80%) efficacy were designated as subclass a, and compounds with R^2 > 0.9 and low efficacies (30–80%) as subclass b. […] Compound activity correlations between different assays or experiments were assessed by calculating the Pearson correlation coefficient. Hierarchical clustering of compound activity patterns across different assays was performed within Spotfire DecisionSite 8.2 (Spotfire Inc., Cambridge, MA) using the correlation of log IC50 values as the similarity metric.
# HepG2 cells = test: Real-time cell electronic sensing (RT-CES) cytotoxicity assay; assay type: cell-based, Human; conditions: HepG2, RT-CES impedance, 0.14 to 100 μM
# Description: HepG2 cells in the presence of compounds at concentrations from 0.14 to 100 μM were monitored by measurements of electrical impedance (ACEA Biosciences Inc., San Diego, CA) every 10 min for the first hour, then every hour for 70–90 hr.
# SH-SY5Y = tested on: SH-SY5Y
# Description: (§2) We measured cell viability using a luciferase-coupled ATP quantitation assay (CellTiter-Glo; Promega, Madison, WI). In this assay, luminescent signal is proportional to amount of ATP and thus to the number of metabolically competent cells; cell injury and death result in a dramatic decrease in intracellular ATP levels ([Crouch et al. 1993]). Cells were dispensed at 1,000–2,000 cells/5 μL/well in tissue-culture treated 1,536-well white/solid bottom assay plates (Greiner Bio-One North America, Monroe, NC) using a Flying Reagent Dispenser (Aurora Discovery, Carlsbad, CA). All but Jurkat cells (which are grown in suspension) were incubated at 37°C for 5–6 hr to allow for cell attachment, followed by addition of compounds via pin tool (Kalypsys, San Diego, CA). […] At the end of the incubation period, 5 μL of CellTiter-Glo reagent was added, plates were incubated at room temperature for 30 min, and the luminescence intensity of each well was determined using a ViewLux plate reader (PerkinElmer, Shelton, CT).
# (§3) Compound formatting and qHTS were performed as described previously ([Inglese et al. 2006]).
# as §1, with “Analysis of compound concentration–response data was performed as previously described ([Inglese et al. 2006]). […] Concentration–response titration points for each compound were fitted to the Hill equation ([Hill 1910]), yielding concentrations of half-maximal inhibition (IC50) and maximal response (efficacy) values. […] Class” for “Class”
# NIH 3T3 = assay type: cell-based, Mouse
# Description: as §2, §3
# (§4) Analysis of compound concentration–response data was performed as previously described ([Inglese et al. 2006]). […] Compound activity correlations between different assays or experiments were assessed by calculating the Pearson correlation coefficient. […]
# BJ = conditions: mean ± SD
# Description: as §2, §3
# as §1, with “Analysis of compound concentration–response data was performed as previously described ([Inglese et al. 2006]). […] Concentration–response titration points for each compound were fitted to the Hill equation ([Hill 1910]), yielding concentrations of half-maximal inhibition (IC50) and maximal response (efficacy) values. […] Class” for “Class”
# H-4-II-E = conditions: mean ± SD
# Description: as §2, §3
# as §1, with “Analysis of compound concentration–response data was performed as previously described ([Inglese et al. 2006]). […] Concentration–response titration points for each compound were fitted to the Hill equation ([Hill 1910]), yielding concentrations of half-maximal inhibition (IC50) and maximal response (efficacy) values. […] Class” for “Class”
# HUV-EC-C = conditions: mean ± SD
# Description: as §2, §3
# as §1, with “Analysis of compound concentration–response data was performed as previously described ([Inglese et al. 2006]). […] Concentration–response titration points for each compound were fitted to the Hill equation ([Hill 1910]), yielding concentrations of half-maximal inhibition (IC50) and maximal response (efficacy) values. […] Class” for “Class”
# HepG2 = conditions: HepG2, mean ± SD
# Description: as §2, §3
# as §1, with “Analysis of compound concentration–response data was performed as previously described ([Inglese et al. 2006]). […] Concentration–response titration points for each compound were fitted to the Hill equation ([Hill 1910]), yielding concentrations of half-maximal inhibition (IC50) and maximal response (efficacy) values. […] Class” for “Class”
# Jurkat = conditions: mean ± SD
# Description: as §2, §3
# as §1, with “Analysis of compound concentration–response data was performed as previously described ([Inglese et al. 2006]). […] Concentration–response titration points for each compound were fitted to the Hill equation ([Hill 1910]), yielding concentrations of half-maximal inhibition (IC50) and maximal response (efficacy) values. […] Class” for “Class”
# MRC-5 = conditions: MRC-5, mean ± SD
# Description: as §2, §3
# as §1, with “Analysis of compound concentration–response data was performed as previously described ([Inglese et al. 2006]). […] Concentration–response titration points for each compound were fitted to the Hill equation ([Hill 1910]), yielding concentrations of half-maximal inhibition (IC50) and maximal response (efficacy) values. […] Class” for “Class”
# Mesangial = conditions: mean ± SD
# Description: as §2, §3
# as §1, with “Analysis of compound concentration–response data was performed as previously described ([Inglese et al. 2006]). […] Concentration–response titration points for each compound were fitted to the Hill equation ([Hill 1910]), yielding concentrations of half-maximal inhibition (IC50) and maximal response (efficacy) values. […] Class” for “Class”
# N2a = conditions: mean ± SD
# Description: as §2, §3
# as §1, with “Analysis of compound concentration–response data was performed as previously described ([Inglese et al. 2006]). […] Concentration–response titration points for each compound were fitted to the Hill equation ([Hill 1910]), yielding concentrations of half-maximal inhibition (IC50) and maximal response (efficacy) values. […] Class” for “Class”
# [2] = tested on: Rat kidney proximal tubule; conditions: mean ± SD
# Description: as §2, §3
# as §1, with “Analysis of compound concentration–response data was performed as previously described ([Inglese et al. 2006]). […] Concentration–response titration points for each compound were fitted to the Hill equation ([Hill 1910]), yielding concentrations of half-maximal inhibition (IC50) and maximal response (efficacy) values. […] Class” for “Class”
# SK-N-SH = conditions: mean ± SD
# Description: as §2, §3
# as §1, with “Analysis of compound concentration–response data was performed as previously described ([Inglese et al. 2006]). […] Concentration–response titration points for each compound were fitted to the Hill equation ([Hill 1910]), yielding concentrations of half-maximal inhibition (IC50) and maximal response (efficacy) values. […] Class” for “Class”
# HEK293 = assay type: cell-based
# Description: as §2, §3, §4
structure (smiles),measurement,setting,value
[K+].[K+].[O]=[Cr](=[O])([O-])[O][Cr](=[O])(=[O])[O-] [potassium dichromate],Cytotoxicity pattern across the 13 cell types,[1],cytotoxic in all 13 cell types
same,Exposure time to complete cytotoxicity,HepG2 cells,35 h
CN(C)C(=S)SSC(=S)N(C)C [tetra-methylthiuram disulfide],Potency in SH-SY5Y relative to the next most responsive cell type,SH-SY5Y; more potent in SH-SY5Y,250 fold
C[C@@H]1C[C@@H]([C@H](O)CC2CC(=O)NC(=O)C2)C(=O)[C@@H](C)C1 [cycloheximide],Cytotoxicity pattern across the 13 cell types,"[1]; human, rat, mouse",cytotoxic in all but two cell types (MRC-5 and SH-SY5Y)
same,Kinetic response (cell index over time),HepG2 cells,inhibited cell proliferation but did not decrease cell number below what was present at the time of addition
[CH3][Hg][Cl] [methyl mercuric (II) chloride],Potency in NIH 3T3 relative to the next most responsive cell type,NIH 3T3,50 fold
C[C@@H]1CC[C@@]2(OC1)O[C@H]1[C@@H](O)[C@H]3[C@@H]4CC[C@H]5C[C@@H](O[C@@H]6O[C@H](CO)[C@H](O[C@@H]7O[C@H](CO)[C@@H](O)[C@H](O[C@@H]8OC[C@@H](O)[C@H](O)[C@H]8O)[C@H]7O[C@@H]7O[C@H](CO)[C@H](O)[C@H](O[C@@H]8O[C@H](CO)[C@@H](O)[C@H](O)[C@H]8O)[C@H]7O)[C@H](O)[C@H]6O)[C@H](O)C[C@]5(C)[C@H]4CC[C@]3(C)[C@H]1[C@@H]2C [digitonin],Cytotoxicity pattern across the 13 cell types,"[1]; 0.59 nM to 92 μM, 40 hr",cytotoxicity in all cell types at similar concentrations; also recorded: cytotoxic in all 13 cell types; also recorded: uniformly toxic across all cell types
same,Exposure time to full cytotoxicity,HepG2 cells,10 min
CC/C(=C(\c1ccccc1)c1ccc(OCCN(C)C)cc1)c1ccccc1 [tamoxifen],Hill coefficient,BJ,3.1 ± 1.0
same,Hill coefficient,H-4-II-E,2.7 ± 0.8
same,Hill coefficient,HUV-EC-C,4.2 ± 0.5
same,Hill coefficient,HepG2,4.4 ± 0.5
same,Hill coefficient,Jurkat,2.0 ± 0.2
same,Hill coefficient,MRC-5,2.9 ± 1.2
same,Hill coefficient,Mesangial,2.4 ± 0.8
same,Hill coefficient,N2a,4.0 ± 0.8
same,Hill coefficient,[2],4.7 ± 0.3
same,Hill coefficient,"SH-SY5Y; SH-SY5Y, mean ± SD",3.1 ± 0.7
same,Hill coefficient,SK-N-SH,3.4 ± 0.7
same,Hill coefficient,"NIH 3T3; NIH 3T3, mean ± SD",2.6 ± 0.8
same,Hill coefficient,"HEK293; HEK293, mean ± SD",3.8 ± 1.0
CN(C)c1ccc(C(=C2C=CC(=[N+](C)C)C=C2)c2ccccc2)cc1.CN(C)c1ccc(C(=C2C=CC(=[N+](C)C)C=C2)c2ccccc2)cc1.O=C(O)C(=O)O.O=C([O-])C(=O)O.O=C([O-])C(=O)O [malachite green oxalate],Cytotoxicity pattern across the 13 cell types,[1],cytotoxicity in all cell types at similar concentrations
C[C@H]1O[C@@H](O[C@H]2[C@@H](O)C[C@H](O[C@H]3[C@@H](O)C[C@H](O[C@H]4CC[C@@]5(C)[C@H](CC[C@@H]6[C@@H]5C[C@@H](O)[C@]5(C)[C@@H](C7=CC(=O)OC7)CC[C@]65O)C4)O[C@@H]3C)O[C@@H]2C)C[C@H](O)[C@@H]1O [digoxin],Species selectivity of cytotoxicity (human versus rodent cell types),[1],more toxic to human cells
COc1cccc2c1C(=O)c1c(O)c3c(c(O)c1C2=O)C[C@@](O)(C(=O)CO)C[C@@H]3O[C@H]1C[C@H](N)[C@H](O)[C@H](C)O1 [doxorubicin],Cytotoxicity pattern across the 13 cell types,"[1]; 0.59 nM to 92 μM, 40 hr",toxic in all cell types; also recorded: cytotoxic in all 13 cell types
same,Exposure time to complete cytotoxicity,HepG2 cells,35 h
Cl.N=C1C=CC(=C(c2ccc(N)cc2)c2ccc(N)cc2)C=C1 [pararosaniline hydrochloride],Cytotoxicity pattern across the 13 cell types,"[1]; 0.59 nM to 92 μM, 40 hr",cytotoxicity in all cell types at similar concentrations
CN(C)c1ccc(C(=C2C=CC(=[N+](C)C)C=C2)c2ccc(N(C)C)cc2)cc1.[Cl-] [hexamethyl-p-rosaniline chloride],Cytotoxicity pattern across the 13 cell types,[1],cytotoxicity in all cell types at similar concentrations
O=C(Nc1ccccc1)Nc1ccccc1 [diphenylurea],Species selectivity of cytotoxicity (human versus rodent cell types),[1],toxicity in cells from one species but not the other
Cc1ccc2c(c1[N+](=O)[O-])C(=O)c1ccccc1C2=O [2-methyl-1-nitroanthraquinone],Cell type-selective toxicity,HEK293; in HEK293 cells,selective toxicity
CC(=O)[O][Hg][c]1ccccc1 [phenyl mercuric acetate],Cytotoxicity pattern across the 13 cell types,[1],uniformly toxic across all cell types
CN(C)c1ccc(N=Nc2ccccc2)cc1 [dimethylaminoazobenzene],Species selectivity of cytotoxicity (human versus rodent cell types),[1],more toxic to rodent cells
